T1: Uvi2 (Ustilago hordei, UniProt I2G262)
T1 sequence (I2G262 22-243): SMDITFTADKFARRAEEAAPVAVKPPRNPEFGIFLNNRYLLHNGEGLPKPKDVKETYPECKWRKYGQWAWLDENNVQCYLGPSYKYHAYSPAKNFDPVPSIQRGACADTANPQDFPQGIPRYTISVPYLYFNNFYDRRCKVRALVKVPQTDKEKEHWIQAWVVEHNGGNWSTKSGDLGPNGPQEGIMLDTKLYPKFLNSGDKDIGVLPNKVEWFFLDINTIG


How the values were obtained:
Uvi2 = target: T1, Uvi2; assay: microscale thermophoresis; assay type: binding; settings: MST as for Cpl1
SEC-MALS = target: the molecule itself; assay: SEC-MALS

Molecule | Kd (Uvi2) | stoichiometry N (SEC-MALS)
CC(=O)N[C@H]1[C@H](O[C@H]2[C@H](O)[C@@H](NC(C)=O)C(O)O[C@@H]2CO)O[C@H](CO)[C@@H](O)[C@@H]1O (some centres unmarked) [chitobiose] | 15 ± 3.72 µM | 
Uvi2 (UHOR_02700 gene product), the Cpl1 homologue from Ustilago hordei, recombinant (natural protein) SMDITFTADKFARRAEEAAPVAVKPPRNPEFGIFLNNRYLLHNGEGLPKPKDVKETYPECKWRKYGQWAWLDENNVQCYLGPSYKYHAYSPAKNFDPVPSIQRGACADTANPQDFPQGIPRYTISVPYLYFNNFYDRRCKVRALVKVPQTDKEKEHWIQAWVVEHNGGNWSTKSGDLGPNGPQEGIMLDTKLYPKFLNSGDKDIGVLPNKVEWFFLDINTIG |  | 2

Reference: paper PMC10257043 (Molecular Plant Pathology, 2023)
